The values that follow are results of earlier work, collected in patent US8709515B1, “Nutritional supplement method” (priority 2009, dated 2014).

One data set concerns albino rats. The settings on record: fed in the water to albino rats.
Another data set concerns rats. The settings on record: one eye with induced increase in intraocular pressure.
The subject of data set [1] is selenite induced cataracts in rats.

Take `O=C(O)CCCCC1CCSS1` (stereo not drawn) [Alpha lipoic acid]: the “dose above which it may not be safe” value with cats is given as “higher than 30 mg/day”.
As to `O=C(O[C@@H]1Cc2c(O)cc(O)cc2O[C@@H]1c1cc(O)c(O)c(O)c1)c1cc(O)c(O)c(O)c1` [EGCG, Epigallocatechin gallate], in the data set on albino rats, the light-induced photoreceptor damage result is on record as “attenuated light-induced photoreceptor damage”. The retinal neuronal death entry in the data set on rats is reported as “attenuated retinal neuronal death”. In data set [1], the progression of cataract entry is “retards the progression of cataract”.
